Test results reported in US20150315179A1, “COMPOUNDS AND METHODS OF TREATING NEUROLOGICAL DISORDERS” (Torrey Pines Institute For Molecular Studies, priority 2014, published 2015).
Values belong to the compound of their own block, whether it stands above or below them.

Legend:
[1] = system: sAPPα release, NT2 cells stably expressing human APP751; assay: sAPPα ELISA, NT2 cells expressing APP751; format: cell-based; conditions: 24 h
Description: (§1) (5). To confirm the effect of THPI-244 on sAPPα levels in a neuronal cell line and by a tertiary assay, we exposed human Neuron-committed Teratocarcinoma cell line (NT2) stably expressing human APP751 to different concentrations of THPI-244 for 24 h and compared with that of Bryostatin, a classical activator of PKC known to stimulate sAPPα release. […] Levels of sAPPα were measured by ELISA using commercially available kit (cat #27734, IBL-America, Minneapolis, Minn., USA). […] Similar biphasic effect of Bryostatin was confirmed for Aβ42 also, measured again in NT2 stable cells by ELISA (cat # KHB3441, Life Technologies, Grand Island, N.Y., USA). Consistent with sAPPα, THPI-244 decreased Aβ42 levels dose-dependently starting from 50 nM (28%, p<0.05) to 2000 nM (64%, p<0.001) (n=4 independent experiments) (FIG. 1.7). Thus THPI-244 increased non-amyloidogenic processing of APP in NT2 cells.

[2] = system: sAPPα release, fibroblasts derived from AD patients; assay: sAPPα ELISA, AD fibroblasts; format: cell-based, human; conditions: 24 h
Description: (1). […] Therefore, we first used fibroblasts derived from AD patients (AG06263C, Coriell Cell repository, supported by NINDS/NIH) and exposed to THPI-244 for 24 h and measured sAPPα release by ELISA as done above for NT2 cells. […] We also confirmed dose-dependent effect of THPI-244 on sAPPα levels in human primary neurons transiently transfected with APP751 with Swedish mutation which is trafficked differently from WT APP and releases more sAPPα. Human neurons were grown on specially coated glass coverslips (cat # GG-18-PDL, NeuVitro, Germany). We could reproducibly achieve nearly 30% transfection efficiency using a nanoparticle based transfection reagent called Neuromag (cat # NM150299, OZ Biosciences, France).

[3] = system: Aβ42 levels, NT2 cells stably expressing APP751; assay: Aβ42 ELISA, NT2 stable cells; format: cell-based, human; conditions: ELISA
Description: as §1

[4] = system: 7WD10 (CHO) cells stably expressing APP751; assay: SAHA treatment, APP fragments in 7WD10 (CHO) cells; format: cell-based; conditions: SAHA application
Description: (§2) Western blot sAPPα release assay. 7WD10 cells were grown in 6-well plates and treated with test compounds and SAHA (vorinostat) at several concentrations in duplicate wells. After 24 h of drug exposure, the conditioned media (CM) was collected, centrifuged to remove cell debris and subjected to SDS-PAGE electrophoresis. sAPPα (6E10, mouse IgG from IBL America ltd) was detected using indicated antibody. To detect APP-FL holoprotein and C-terminal fragments (CTFs, CT15 antibody), the cells were lysed using lysis buffer (1% NP40) with complete protease inhibitor mix (Sigma) supplemented with sodium vanadate and microcystine. Samples were subjected to SDS-PAGE, transferred and immunoblotted with indicated antibodies and detected by enhanced chemiluminescence method. Quantification of Western blot signals was done using ImageJ software.
(§3) We utilized a commercially available AlphaLISA detection kit to develop an HTS assay for identification of compounds that increase sAPPα production in CHO cells stably expressing APP751 (7WD10 cells) (FIG. 2.1B). There are several cell lines that have been used extensively in Alzheimer's disease research. For example, NT2 cells are highly used in AD basic and drug discovery research because they are derived from a human embryonal carcinoma cell line and they can be differentiated into post-mitotic neuron-like cells that develop functional dendrites and axons resembling primary neurons of the human brain [39]. NT2 cells also synthesize amyloid precursor protein important in Alzheimer's disease. However, the rate of growth of NT2 cells is much slower than rate of growth of 7WD10s cells, which makes them less HTS-amenable. We have analyzed both 7WD10 and NT2 cells for expression of the hallmark proteins of Alzheimer's disease: soluble APPα, soluble APPβ, Aβ, and membrane-bound full length APP (APP-FL). […] Since it was shown that broad HDAC inhibition results in a decrease of Aβ and an increase of soluble APPα [41] we tested both cell lines for the effect of application of SAHA (suberoylanilide hydroxamic acid or vorinostat), a pan-HDAC inhibitor [42].

[5] = system: NT2 cells stably expressing APP751; assay: SAHA treatment, APP fragments in NT2 cells; format: cell-based, human; conditions: SAHA application
Source text: as §3

[6] = system: sAPPα in supernatants of 7WD10 cells; assay: Western blot sAPPα release assay, 7WD10 cells; format: cell-based; conditions: as low as 10 nM, 7WD10 supernatants
Description: (2). To ascertain that hits identified as a result of AlphaLISA assay are not due to artifacts of the detection system, the sAPPα levels were measured by Western blots as a secondary assay downstream of primary HTS to confirm hits or discard artifacts of the AlphaLISA assay. The assay was performed using a range of concentrations of hit compounds (10-5,000 nM). A hit compound named thiazole piperazine #244 (THPI-244) and THPI-326 induced dose-dependent increase of sAPPα in supernatants of 7WD10 cells (FIG. 1.3). […] Since compound THPI-244 increased sAPPα levels more than THPI-326, we focused on THPI-244 for further validation.
as §2

[7] = system: sAPPα release from 7WD10 cells; assay: AlphaLISA sAPPα release assay (pilot screen); format: cell-based
Description: Pilot screen of AlphaLISA sAPPα release assay. 8 μL of assay media (DMEM supplemented with 10% FBS and 1× Penicillin/Streptomycin) containing 20,000 cells were added to all wells of the assay plate, except column 1 where only media was added. Plates were incubated for 4 h at 37° C., 5% CO2, 95% RH after which 80 nL of test compounds in DMSO or DMSO alone were added to respective wells using a pin tool device (VP Scientific, San Diego). After 24 h of incubation at 37° C., 5% CO2, 95% RH, sAPPα AlphaLISA beads were added in 10 μL of buffer, equilibrated for 1 h, and AlphaLISA signal was measured using a Biotek H4 Synergy microplate reader (Biotek Inc). Three parameters were calculated on a per-plate basis: (a) the signal-to-background ratio (S/B); (b) the coefficient for variation [CV; CV=(standard deviation/mean)×100)] for all compound test wells; and (c) the Z′-factor [31]. Nominally active compounds from the pilot screen were determined using mean plus 3 times the standard deviation (Mean+3SD) was used as the cut-off.

TrkA = TrkA increase by THPI-244 analogs; format: cell-based
Source text: (§4) The following table illustrates Chemical structures and properties of THPI-244 analogs selected out of 37 analogs, and each have significant sAPPα increasing activity. Toxicity is the minimum dose for toxicity.

BBB of THPI-244 analogs = assay: BBB of THPI-244 analogs
Source text: as §4

sAPPα = sAPPα increasing activity of THPI-244 analogs; format: cell-based
Source text: as §4

[8] = system: Aβ40 in conditioned medium of 7WD10 cells; assay: Aβ40 release ELISA, 7WD10 cells; format: cell-based
Source text: sAPPα and Aβ40 release ELISA assay. 7WD10 cells stably expressing APP751 were used for the detection of sAPPα in the conditioned medium (CM). For the detection of sAPPα, human sAPPα assay kit from IBL (Immuno-Biological Laboratories Co., Ltd, cat #27734) was used. The kit is a solid phase sandwich ELISA using two different antibodies. The principle of the method is based on the use of tetra methyl benzidine (TMB) as a chromogen and the strength of the generated color is proportional to the quantities of human sAPPα. Briefly, cells were grown in 6-well plates and treated with compound 1 at 0, 50, 75, 100, 125 and 150 μM final concentrations. After 24 hours of compound exposure, the CM was collected, centrifuged to remove cell debris and used in the assay. 100 μL of EIA buffer was used as blank. The 100 μL of test samples were put in to each well and incubated the precoated plate overnight at […] covered with plate lid. After overnight incubation, wells were vigorously washed with wash buffer several times. Then 100 μL of labeled antibody was added, incubated at 40 C for 30 minutes and washed again several times. Plates were incubated with chromogen solution for 30 minutes, and read at 450 nm after adding stop solution. Levels of Aβ40 in the CM treated with different concentrations of compound 1 as detailed above were measured by sandwich ELISA exactly as described previously. Aβ40 was captured with Ab9 antibody (epitope, 1-16 of Aβ40) and detected with horseradish peroxidase-conjugated Ab13.1.1 antibody (epitope, 35-40 of Aβ40).

[9] = system: sAPPα in conditioned medium of 7WD10 cells; assay: sAPPα release ELISA, 7WD10 cells; format: cell-based; conditions: 24 h
Description: Starting from p-methylbenzhydrylamine hydrochloride (MBHA.HCl) resin; we developed different approaches toward the diversity oriented solid-phase parallel synthesis of different aminothiazole compounds 1-6 (Scheme 1) (Micheals, H A et al., 2014, ACS Comb. Sci. 16, 1-4; Nefzi, A et al., 2010, J. Org. Chem. 75, 7939-7941). 575 thiazole compounds were synthesized and were tested for sAPPα increasing activity using CHO cells stably expressing APP751 wt. For initial screenings we used a cell-based human sAPPα ELISA kit (cat#27734, IBL Co., ltd, Japan) following instructions from the manufacturer. The method involves sandwich ELISA and use of two specific antibodies and tetra methyl benzidine as a coloring agent. […]
sAPPα and Aβ40 release ELISA assay. […] The principle of the method is based on the use of tetra methyl benzidine (TMB) as a chromogen and the strength of the generated color is proportional to the quantities of human sAPPα. […] Plates were incubated with chromogen solution for 30 minutes, and read at 450 nm after adding stop solution. Levels of Aβ40 in the CM treated with different concentrations of compound 1 as detailed above were measured by sandwich ELISA exactly as described previously. Aβ40 was captured with Ab9 antibody (epitope, 1-16 of Aβ40) and detected with horseradish peroxidase-conjugated Ab13.1.1 antibody (epitope, 35-40 of Aβ40).

7WD10 cells = assay: CellTiter-Glo cell viability assay; format: cell-based; conditions: for viability: 100 μM
Description: Cell viability assay. 7WD10 cells were plated in 384-well plates in 8 μL of media. Plates were incubated for 4 and 24 h at 37° C., 5% CO2 and 95% RH. After incubation, 8 μL of CellTiter-Glo® (Promega cat#: G7570) were added to each well, and incubated for 15 min at room temperature. Luminescence was recorded using a Biotek Synergy H4 microplate reader. Viability is expressed as a % relative to wells containing media only (0%) and wells containing cells (100%).
In the absence of known pharmacological agents capable of inducing an increase of sAPPα release, we tested a small molecule (FIG. 2.4A insert, compound 1 in [2]) shown to decrease Aβ release. It was shown that decrease of Aβ release could be accompanied by the increase of soluble APPα, which has a neuroprotective effect. Compound 1 was tested using 20,000 cells/well in the range of 1.2-100 μM using 3-fold serial dilutions and 24 h incubation as an assay endpoint. Increase of sAPPα release was observed only in wells where 100 μM of compound 1 was added either with or without FBS (FIG. 2.4A). Viability of cells was also tested in the presence of 1.2-100 μM of compound 1 to ascertain that the increase of sAPPα release is not due to excessive cell death. Consistent with the above described results, cells were less viable in the absence of FBS. In the presence of 1.2-33 μM of compound 1, cells were approximately 10% less viable than untreated control either with or without FBS (FIG. 2.4B).

Compound: CCC/C=C/C=C/C(=O)O[C@H]1/C(=C/C(=O)OC)C[C@H]2C[C@H]([C@@H](C)O)OC(=O)C[C@H](O)C[C@@H]3C[C@H](OC(C)=O)C(C)(C)[C@](O)(C[C@@H]4C/C(=C/C(=O)OC)C[C@H](/C=C/C(C)(C)[C@]1(O)O2)O4)O3 [Bryostatin, reference compound]
concentration from which sAPPα increase is significant [1]: 10 nM | effect on sAPPα release [1]: increased sAPPα at low nM concentrations, but then decreased levels dose-dependently | concentration from which sAPPα increase is significant [2]: 10 nM | concentration from which Aβ42 decrease is significant [3]: 10 nM

Compound: O=C(CCCCCCC(=O)Nc1ccccc1)NO [SAHA, suberoylanilide hydroxamic acid]
Aβ [4]: decrease | levels of APP-FL [4]: not affected | sAPPβ [4]: decrease | Aβ [5]: decrease | levels of APP-FL [5]: not affected | sAPPβ [5]: decrease

Compound: CCC(C)C(=O)N1CCN(Cc2csc(NC[C@H](Cc3ccc(O)cc3)NC(=O)Cc3ccccc3)n2)CC1 (stereo partly shown) [THPI-326]
increase of sAPPα over untreated control cells [6]: 2 fold | increase of Alpha signal (sAPPα release) ([7]; 5 μM, 7WD10 cells, 24 h): ~2 fold

% BBB (BBB of THPI-244 analogs): 1.0%
Compound: Cc1cnc(C(=O)N[C@H](CNc2nc(CN3CCNCC3)cs2)c2ccccc2)cn1 [TPI-2336-55]
% TrkA ↑ (TrkA): 69% | % sAPPα ↑ (sAPPα): 217%

% BBB (BBB of THPI-244 analogs): 5.6%
Compound: c1ccc(CCNc2nc(CN3CCOCC3)cs2)cc1 [TPI-2336-99]
% TrkA ↑ (TrkA): 51% | % sAPPα ↑ (sAPPα): 160%

% BBB (BBB of THPI-244 analogs): 5.9%
Compound: c1ccc(CCNc2nc(CN3CCCCC3)cs2)cc1 [TPI-2336-100]
% TrkA ↑ (TrkA): 54% | % sAPPα ↑ (sAPPα): 166%

Compound: O=C(NCCSCc1cccc(Cl)c1)c1c(Cl)cccc1Cl [compound 1, 2,6-dichloro-N-{2-[(3-chlorobenzyl)thio]ethyl}benzamide]
decrease of Aβ40 supernatant levels ([8]; 100 μM): 24% | decrease of Aβ40 supernatant levels ([8]; 125 μM): 43% | decrease of Aβ40 supernatant levels ([8]; 150 μM): 49% | increase of sAPPα over untreated control cells ([9]; 100 μM): 2 fold | maximal effect, increase of sAPPα ([9]; 150 μM): 3 fold | increase of AlphaLISA signal ([7]; 100 μM compound 1, assay development and pilot screen): 2 fold | concentration at which increase of sAPPα release was observed ([7]; tested 1.2-100 μM, 20,000 cells/well, 24 h, with or without FBS): 100 µM | viability (7WD10 cells; with FBS): ~70% | viability (7WD10 cells; without FBS): ~40% | loss of viability versus untreated control (7WD10 cells; 1.2-33 μM, with or without FBS): approximately 10%
